Test results taken from paper PMC5141252, “In silico Screening and Evaluation of the Anticonvulsant Activity of Docosahexaenoic Acid-Like Molecules in Experimental Models of Seizures” (Iranian Biomedical Journal, 2017).
Marks after values point to notes of the source that are not given here.

What was measured:
[1] = tested on: clonic seizures induced by pentylenetetrazole; assay: Pentylenetetrazole seizure test; format: in vivo; details: mice; for Protection (%): 15 min before PTZ 60 mg/kg i.p.; for ED50 (mM) and 95% CI: PTZ clonic seizures, log-Probit analysis
Method: (§1) All compounds were prepared freshly before administration. The compounds were dissolved in DMSO and then were diluted in artificial cerebrospinal fluid consisting (in mM) 124.0 NaCl, 25 NaHCO3, 10 D-glucose,4.4 KCl, 2 MgSO4, 1.25 KH2PO4, and 2 CaCl2. The final concentration of DMSO was maintained at 10%. The pH of the solutions was adjusted at the range of 7.2-7.4. Doses of the compounds were selected based on the preliminary experiments conducted in our laboratory.
(§2) DHA-like molecules were administered by intracerebroventricular (i.c.v.) route according to the method described earlier. Briefly, a 3.5-mm-long needle (27 Gauge) was connected to a 10-μL Hamilton microsyringe. The site of injection was 2 mm lateral to the midline on a line drawn through the anterior base of the ears and 3.5 mm in depth from the surface of skull skin. The solution was injected at a rate of 10 µL/10 s and the needle left in place for 60 s after injection.
Fifteen minutes after i.c.v. injection of the compounds, PTZ (60 mg/kg) was injected to the mice intraperitoneally (i.p.). This time period was selected based on the time course of DHA anticonvulsant activity in mice[6]. The occurrence of colonic seizures was monitored in animals for 30 min.
(§3) Statistical analysis was performed by SPSS for Windows software version 16.0. Data obtained from the seizure tests were expressed as percentage of the protected mice. Fisher’s exact test was used to analyze the data. The dose of the drugs that produced anticonvulsant effect in 50% of the animals (ED50), and its associated 95% confidence interval, was calculated by log-Probit analysis.

[2] = tested on: tonic seizures induced by MES; assay: Maximal electroshock seizure test; format: in vivo; details: mice; for Protection (%): 15 min before MES (50 Hz, 50 mA); for ED50 (mM) and 95% CI: i.c.v., MES tonic seizures, log-Probit analysis
Method: as §1, §2
Fifteen minutes after i.c.v. injection of the compounds, an electrical stimulus (50 Hz, 50 mA, 1 s duration) was delivered to the mice through ear-clip electrodes[6] using a stimulator apparatus (MGH-777, Development of Electronic Industry, Iran).
as §3

[3] = tested on: clonic seizures induced by pentylenetetrazole; parameters: method as in PMID 26018398; details: PTZ test, mice, i.c.v administration; cited from earlier work
[4] = tested on: tonic seizures induced by MES; parameters: method as in PMID 26018398; details: cited from earlier work

COc1ccc(CC(=O)O)cc1OC [3,4-Dimethoxyphenylacetic acid, 3,4-Dimethoxyphenylacetic acid]
anticonvulsant activity (in words) ([1]; PTZ and MES seizure tests, i.c.v.): inactive

O=C(O)C1=C[C@@H](O)[C@@H](O)[C@H](O)C1 [Shikimic acid]
Protection (%) ([2]; dose 0.01 M i.c.v.): 0%
Protection (%) ([2]; dose 0.1 M i.c.v.): 20.0%
Protection (%) ([2]; dose 0.5 M i.c.v.): 43.3^b %
Protection (%) ([2]; dose 1 M i.c.v.): 70.0^a %
ED50 (mM) and 95% CI [2]: 637.0 (418.0-890.0) mM
ED50 (mM) and 95% CI ([2]; listed as shikimic acid): 29 mM

O=C(O)Cc1ccccc1 [Phenylacetic acid]
Protection (%) ([1]; dose 0.0001 M i.c.v.): 0%
Protection (%) ([1]; dose 0.001 M i.c.v.): 20%
Protection (%) ([1]; dose 0.01 M i.c.v.): 30%
Protection (%) ([1]; dose 0.1 M i.c.v.): 57.5^a %
ED50 (mM) and 95% CI ([1]; i.c.v.): 78 mM
ED50 (mM) and 95% CI ([1]; i.c.v., listed as Phenylbutyric acid): 78.0 (46.0-156.0) mM

CCC(C(=O)O)c1ccccc1 (stereo not shown) [2-Phenylbutyric acid]
Protection (%) ([1]; dose 0.0001 M i.c.v.): 0%
Protection (%) ([1]; dose 0.001 M i.c.v.): 30%
Protection (%) ([1]; dose 0.01 M i.c.v.): 40^b %
Protection (%) ([1]; dose 0.1 M i.c.v.): 56.6^a %
ED50 (mM) and 95% CI ([1]; i.c.v.): 70.0 (25.0-144.2) mM

O=C(O)Cc1ccc(-c2ccccc2)cc1 [4-Biphenylacetic acid]
Protection (%) ([1]; dose 0.0001 M i.c.v.): 15%
Protection (%) ([1]; dose 0.001 M i.c.v.): 35%
Protection (%) ([1]; dose 0.0075 M i.c.v.): 50%
Protection (%) ([1]; dose 0.01 M i.c.v.): 85^a %
ED50 (mM) and 95% CI ([1]; i.c.v.): 5.0 (3.0-5.0) mM

O=C(O)CCCc1ccccc1 [4-Phenylbutyric acid]
Protection (%) ([1]; dose 0.0001 M i.c.v.): 25%
Protection (%) ([1]; dose 0.001 M i.c.v.): 50^b %
Protection (%) ([1]; dose 0.01 M i.c.v.): 73.3^a %
ED50 (mM) and 95% CI ([1]; i.c.v.): 4.0 (0.0-7.0) mM

CC/C=C\C/C=C\C/C=C\C/C=C\C/C=C\C/C=C\CCC(=O)O [DHA, Docosahexaenoic acid]
ED50 [3]: 0.00013 mM
inhibition of tonic seizures in the MES model [4]: not able to inhibit tonic seizures

CC(C)(C)C1CCC(C(=O)O)CC1 (stereo not shown) [4-tert-Butylcyclohexanecarboxylic acid]
Protection (%) ([2]; dose 0.001 M i.c.v.): 37.5%
Protection (%) ([2]; dose 0.01 M i.c.v.): 46.6^b %
Protection (%) ([2]; dose 0.1 M i.c.v.): 73.3^a %
ED50 (mM) and 95% CI ([2]; listed as 4-tert-Butylcyclo-hexanecarboxylic acid): 637 mM
ED50 (mM) and 95% CI ([2]; listed as 4-tert-Butylcyclohexane carboxylic acid): 29.0 (0.0-66.0) mM
